Assay results published in PubChem BioAssay (NCI).
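Protocol summary: plate cells (96-well), add compound at 5 concentrations, incubate 48 h, interpolate endpoints linearly. TGI marks complete inhibition of growth.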

Legend:
Experiment in all cases: NCI-60 cell line screen, 48 h
786-0 renal = test system: 786-0 renal
DU-145 prostate = test system: DU-145 prostate
EKVX NSCLC = test system: EKVX NSCLC
HCC-2998 colon = test system: HCC-2998 colon
HCT-116 colon = test system: HCT-116 colon
HT29 colon = test system: HT29 colon
K-562 leukemia = test system: K-562 leukemia
KM12 colon = test system: KM12 colon
LOX IMVI melanoma = test system: LOX IMVI melanoma
MDA-MB-231 breast = test system: MDA-MB-231 breast
MDA-MB-435 = test system: MDA-MB-435
MOLT-4 leukemia = test system: MOLT-4 leukemia
NCI-H23 lung = test system: NCI-H23 lung
OVCAR-3 ovarian = test system: OVCAR-3 ovarian
PC-3 prostate = test system: PC-3 prostate
SF-268 CNS = test system: SF-268 CNS
SK-OV-3 ovarian = test system: SK-OV-3 ovarian
SNB-19 CNS = test system: SNB-19 CNS
UACC-257 melanoma = test system: UACC-257 melanoma

Row | Compound | TGI (786-0 renal) [µM] | TGI (DU-145 prostate) [µM] | TGI (EKVX NSCLC) [µM] | TGI (HCC-2998 colon) [µM] | TGI (HCT-116 colon) [µM] | TGI (HT29 colon) [µM] | TGI (K-562 leukemia) [µM] | TGI (KM12 colon) [µM] | TGI (LOX IMVI melanoma) [µM] | TGI (MDA-MB-231 breast) [µM] | TGI (MDA-MB-435) [µM] | TGI (MOLT-4 leukemia) [µM] | TGI (NCI-H23 lung) [µM] | TGI (OVCAR-3 ovarian) [µM] | TGI (PC-3 prostate) [µM] | TGI (SF-268 CNS) [µM] | TGI (SK-OV-3 ovarian) [µM] | TGI (SNB-19 CNS) [µM] | TGI (UACC-257 melanoma) [µM]
1 | COc1cccc(C2c3cc4c(cc3OC(N3CCCCC3)C2C)OCO4)c1OC (stereo unspecified) | > 100 | 25.5 | 54.5 | 33 | 12.1 | 19.8 | 20.7 | 23.8 | 20.1 | 41 | 33.8 | 30.4 | 71.3 | 20.7 | 42.8 | 48.4 | > 100 | > 100 | 36.2
2 | CN1CCc2cc(N)cc3c2C1Cc1ccc2c(c1-3)OCO2 (stereo unspecified) | 99 | 96.9 | > 100 | 51.4 | > 90.4 | > 100 | > 80 | > 100 | 37.2 | > 100 | > 100 | 35 | > 100 | > 76.5 | > 100 | > 100 | > 100 | > 100 | > 64.6
3 | CC1=CC(=O)/C(=C/n2c(=S)[nH]c3ccc([N+](=O)[O-])cc32)C(=O)O1 | > 100 | > 100 | > 100 | > 100 | > 100 | > 100 | > 100 | > 100 | > 100 | > 100 | > 100 | > 100 | > 100 | > 100 | > 100 | > 100 | > 100 | > 100 | > 100
4 | OC(CC(O)(C(F)(F)F)C(F)(F)F)C(O)c1ccco1 (stereo unspecified) | > 10 | > 10 | > 10 | > 10 | > 10 | > 10 | > 10 | > 10 | > 10 | > 10 | > 10 | > 10 | > 10 | > 10 | > 10 | > 10 | > 10 | > 10 | > 10
5 | c1cc(C[S+]2CCCC2)sc1C[S+]1CCCC1 | > 100 | > 100 | > 100 | > 100 | > 100 | > 100 | > 100 | > 100 | > 100 | > 100 | > 100 | > 100 | > 100 | > 100 | > 100 | > 100 | > 100 | > 100 | > 100
6 | CC(C)NC(=O)OCc1c(COC(=O)NC(C)C)c(-c2ccc[n+](COC(=O)C(C)(C)C)c2)n2c1CCC2 | > 100 | > 100 | > 100 | > 100 | > 100 | > 100 | > 100 | > 100 | > 100 | > 100 | > 100 | > 100 | > 100 | > 100 | > 100 | > 100 | > 100 | > 100 | > 100
7 | Oc1cccc2c1[nH]c1c(C3=C[C@@]4(O)CC/C=C\CCCCN5CC[C@@H]3[C@]3(CC6/C=C\CCCCN6[C@H]34)C5)nccc12 (stereo partly specified) | 1.86 | 4.64 | 4.87 | 1.87 | 2.74 | 2.25 | 2.01 | 2.99 | 2.04 | 2.81 | 2.17 | 4.95 | 2.56 | 2.83 | 3.87 | 6.15 | 5.15 | 14.6 | 5.79
8 | O=C(O)C1=NN(c2ccc(S(=O)(=O)O)cc2)C2(C1)SCC(=O)N2c1nc2ccccc2s1 (stereo unspecified) | > 100 | > 100 | > 100 | > 100 | > 100 | > 100 | > 100 | > 100 | > 100 | > 100 | > 100 | > 100 | > 100 | > 100 | > 100 | > 100 | > 100 | > 100 | > 100
9 | O=c1[nH]c2cc([N+](=O)[O-])ccc2nc1/C=C(\O)c1ccc(Cl)cc1 | 14.4 | 23 | 35.5 | 72.3 | 11.8 | 32.7 | > 100 | 40 | 25.4 | 24.7 | 45.2 | 46.2 | 29.4 | 38.6 | 32.5 | 53.8 | 43.4 | 24 | 60.5
10 | O=S(=O)(O)C(Cc1nc2ccccc2[nH]1)S(=O)(=O)OCCC1S(=O)(=O)OCCOS1(=O)=O (stereo unspecified) | > 100 | > 100 | > 100 | > 100 | > 100 | > 100 | > 100 | > 100 | > 100 | > 100 | > 100 | > 100 | > 100 | > 100 | > 100 | > 100 | > 100 | > 100 | > 100
11 | COCN1C(=O)[C@@H]2CCCN2C(=O)c2ccc([N+](=O)[O-])cc21 | > 100 | > 100 | > 100 | > 100 | > 100 | > 100 | > 100 | > 100 | > 100 | > 100 | > 100 | > 100 | > 100 | > 100 | > 100 | > 100 | > 100 | > 100 | > 100
12 | CCc1ccccc1NC(=O)C(=O)CC(=O)c1sc(Nc2ccccc2Cl)nc1C | 90.9 | > 100 | > 100 | > 100 | 50.4 | > 100 | > 100 | > 100 | 44 | > 100 | 66.4 | 49.8 | > 100 | 61 | > 100 | > 100 | 63.3 | > 100 | > 100
13 | CCOC(=O)c1cc2cc(C)cc(C(=O)c3ccc([N+](=O)[O-])cc3)c2[nH]1 | > 100 | > 100 | > 100 | > 100 | > 100 | > 100 | > 100 | > 100 | > 100 | > 100 | > 100 | > 100 | > 100 | > 100 | > 100 | > 100 | > 100 | > 100 | > 100
14 | COc1cccc(Nc2nc(N)nc(N)c2N=O)c1 | 70.2 | 36.7 | > 100 | 34.4 | 38.2 | 75.3 | > 100 | > 100 | 32.6 | > 100 | 39.9 | 41.8 | 31.5 | > 100 | > 100 | > 100 | > 100 | > 100 | 56.9
15 | CC12C(=O)OC(=O)C1(C)C1C=CC2O1 (stereo unspecified) | > 100 | > 100 | > 100 | > 100 | > 100 | > 100 | > 100 | > 100 | > 100 | > 100 | > 100 | > 100 | > 100 | 99 | > 100 | > 100 | > 100 | > 100 | > 100
16 | COC(=O)/C=C1/OC(c2ccc(C)cc2)=C(Cl)C1=O | 27 | 32.7 | 42.3 | 34.4 | 24.7 | 32.6 | 19 | 30.7 | 23.7 | 33.6 | 34.9 | 13.8 | 36.9 | 27.1 | 27.7 | 41.6 | 59.3 | 52.2 | 43.1
17 | CCOC(=O)c1ccc(N=c2oc3ccc(OC)cc3cc2-c2nc3ccccc3[nH]2)cc1 | > 100 | > 100 | > 100 | > 100 | > 100 | > 100 | > 100 | > 100 | > 100 | > 100 | > 100 | > 100 | > 100 | > 100 | > 100 | > 100 | > 100 | > 100 | > 100
18 | O=c1cc(-c2cccc(OCc3ccccc3)c2)[nH]c2cc3c(cc12)OCO3 | 3.98 | > 100 | > 100 | 0.751 | > 100 | > 97.3 | > 100 | > 100 | > 100 | 9.03 | 0.36 | > 100 | 15 | 3.58 | > 100 | > 70.3 | 4.23 | 14.9 | > 100
19 | O=c1c2cc(S(=O)(=O)Nc3c(Cl)cccc3Cl)ccc2ncn1NS(=O)(=O)c1ccc2ccccc2c1 | > 62.5 | > 62.5 | > 62.5 | > 62.5 | > 62.5 | > 62.5 | > 62.5 | > 62.5 | > 62.5 | > 62.5 | > 62.5 | > 62.5 | > 62.5 | > 62.5 | > 62.5 | > 62.5 | > 62.5 | > 62.5 | > 62.5
20 | CCOC(=O)c1cc(C#N)[nH]c1-c1ccsc1 | > 100 | 58.8 | 84 | > 100 | > 100 | 95.1 | 93 | 69.6 | > 100 | > 100 | 51.9 | 53.1 | > 100 | 96 | 70.4 | 57.1 | > 100 | > 100 | > 100
21 | CCOC(=O)c1ccc(Nc2nc3cc(C(F)(F)F)ccc3nc2C(=O)OCC)cc1 | 87 | > 100 | > 100 | 69.5 | > 100 | > 100 | > 100 | > 100 | > 100 | > 100 | > 100 | > 100 | > 100 | > 100 | > 100 | > 100 | > 100 | 62.2 | > 100
22 | CCn1c2ccccc2c2cc(NC(=O)c3c(NCCNCCO)nc(=O)[nH]c3C)ccc21 | > 100 | > 100 | > 100 | > 100 | > 100 | > 100 | > 100 | > 100 | > 100 | > 100 | > 100 | > 100 | > 100 | > 100 | > 100 | > 100 | > 100 | > 100 | > 100
23 | COC(=O)c1ccccc1C1CN=NC12Cc1cc(C)cc(C)c1C2=O (stereo unspecified) | > 100 | > 100 | > 100 | > 100 | > 100 | > 100 | > 100 | > 100 | > 100 | > 100 | > 100 | > 100 | > 100 | > 100 | > 100 | > 100 | > 100 | > 100 | > 100
24 | N#CC1(C#N)C(c2ccccc2)C=CC(c2ccc([N+](=O)[O-])cc2)C1(C#N)C#N (stereo unspecified) | 7.71 | 27.3 | 28.6 | 42.9 | 13.7 | > 38.5 | > 100 | 52.5 | 6.87 | 28.1 | 16.3 | 7.1 | 27.4 | 23.2 | 25 | 51.6 | 34.5 | 34.1 | 30.2
